Among the data in ChEMBL document CHEMBL1142363, “Rhodanine derivatives as novel inhibitors of PDE4” (Bioorg Med Chem Lett, 2008) are IC50 and Activity values, retold here.

The target of test [1] is cGMP-inhibited 3',5'-cyclic phosphodiesterase 3A (Homo sapiens, UniProt Q14432). The test is described as follows: Inhibition of PDE3A.
Test [2] has as its target 3',5'-cyclic-AMP phosphodiesterase 4B (Homo sapiens, UniProt Q07343). The experiment in a line: Inhibition of PDE4B.

Activity calls are given as the source filed them. The rule behind the calls is not given here.

Sequence of 3',5'-cyclic-AMP phosphodiesterase 4B (Q07343 whole entry): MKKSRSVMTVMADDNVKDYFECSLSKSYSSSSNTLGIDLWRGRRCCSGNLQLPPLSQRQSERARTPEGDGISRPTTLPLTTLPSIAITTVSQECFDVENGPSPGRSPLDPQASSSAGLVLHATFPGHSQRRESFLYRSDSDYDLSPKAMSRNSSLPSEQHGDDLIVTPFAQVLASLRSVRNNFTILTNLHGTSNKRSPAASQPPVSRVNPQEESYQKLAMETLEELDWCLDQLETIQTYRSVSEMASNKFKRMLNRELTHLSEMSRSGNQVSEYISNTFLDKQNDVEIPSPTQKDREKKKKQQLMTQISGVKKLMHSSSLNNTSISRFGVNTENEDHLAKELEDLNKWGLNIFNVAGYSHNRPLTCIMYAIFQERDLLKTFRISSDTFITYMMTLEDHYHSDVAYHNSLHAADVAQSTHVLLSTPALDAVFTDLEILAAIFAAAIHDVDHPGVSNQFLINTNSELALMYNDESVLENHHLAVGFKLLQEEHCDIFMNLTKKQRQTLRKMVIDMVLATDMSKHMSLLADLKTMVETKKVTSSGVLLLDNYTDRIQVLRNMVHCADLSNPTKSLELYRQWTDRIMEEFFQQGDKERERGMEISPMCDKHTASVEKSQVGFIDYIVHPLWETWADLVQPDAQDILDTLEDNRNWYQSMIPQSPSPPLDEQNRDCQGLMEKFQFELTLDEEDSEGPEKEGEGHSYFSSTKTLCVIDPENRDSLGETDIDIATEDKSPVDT
Sequence of cGMP-inhibited 3',5'-cyclic phosphodiesterase 3A (Q14432 whole entry): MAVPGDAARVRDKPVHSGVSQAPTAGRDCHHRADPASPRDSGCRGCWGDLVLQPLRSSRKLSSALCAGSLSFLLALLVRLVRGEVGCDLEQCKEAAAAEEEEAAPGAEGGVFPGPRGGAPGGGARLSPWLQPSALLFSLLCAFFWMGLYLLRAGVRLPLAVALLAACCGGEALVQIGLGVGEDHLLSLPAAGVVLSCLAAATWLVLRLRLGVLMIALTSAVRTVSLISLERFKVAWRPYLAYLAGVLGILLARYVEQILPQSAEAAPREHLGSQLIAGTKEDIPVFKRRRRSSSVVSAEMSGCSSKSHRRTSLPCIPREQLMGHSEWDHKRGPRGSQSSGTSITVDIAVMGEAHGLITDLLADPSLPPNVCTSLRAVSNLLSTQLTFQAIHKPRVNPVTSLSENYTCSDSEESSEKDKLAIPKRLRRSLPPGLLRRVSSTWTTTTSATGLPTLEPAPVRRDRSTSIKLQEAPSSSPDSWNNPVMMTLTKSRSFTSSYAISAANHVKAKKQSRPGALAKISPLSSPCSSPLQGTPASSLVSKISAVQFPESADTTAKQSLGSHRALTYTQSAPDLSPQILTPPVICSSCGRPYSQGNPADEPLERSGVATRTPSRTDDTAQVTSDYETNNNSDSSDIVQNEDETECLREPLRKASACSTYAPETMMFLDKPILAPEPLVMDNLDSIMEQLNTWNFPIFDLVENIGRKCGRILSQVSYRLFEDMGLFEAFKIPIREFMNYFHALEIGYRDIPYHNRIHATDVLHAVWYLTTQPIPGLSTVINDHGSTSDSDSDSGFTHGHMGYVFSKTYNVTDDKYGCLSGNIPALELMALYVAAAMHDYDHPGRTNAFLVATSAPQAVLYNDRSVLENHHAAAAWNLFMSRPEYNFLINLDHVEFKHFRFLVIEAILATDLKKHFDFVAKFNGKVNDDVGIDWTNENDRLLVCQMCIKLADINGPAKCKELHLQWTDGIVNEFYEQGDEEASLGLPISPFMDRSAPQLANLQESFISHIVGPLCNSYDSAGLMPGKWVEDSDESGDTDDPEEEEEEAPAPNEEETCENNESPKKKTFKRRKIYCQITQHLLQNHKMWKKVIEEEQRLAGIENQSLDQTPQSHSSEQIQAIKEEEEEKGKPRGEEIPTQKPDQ

Take `CCOc1cc(/C=C2\SC(=S)NC2=O)ccc1OC`: the IC50 in test [1] was 39.8 µM; in test [2], 5.3 µM.

On to `COc1ccc(/C=C2\SC(=S)NC2=O)cc1OC` (stereo in doubt; 2a), for which the values for the IC50 in test [1] and in test [2] were 10.5 µM and 17.9 µM, respectively.

Turning to `C=CCN1C(=O)/C(=C/c2ccc(OC)c(OC)c2)SC1=S`, in test [2], the outcome was inactive.

Take `COc1ccc(/C=C2\SC(=S)N(C)C2=O)cc1OC`: in test [2], the outcome was inactive.

As for `COc1ccc(/C=C2\SC(=S)N(C)C2=O)cc1OC1CCCC1`, the result in test [1] was inactive. For the same compound, in test [2], the IC50 was 2.87 µM.

As for `COc1ccc(/C=C2\SC(=S)NC2=O)cc1OC1CCCCC1`, the result in test [1] was inactive. In test [2], this compound yielded an IC50 of 1.94 µM.

Consider `COc1cc(/C=C2\SC(=S)NC2=O)cc(OC)c1OC`, for which, in test [2], the IC50 is 64.8 µM.

Regarding `COc1ccc(/C=C2\SC(=S)NC2=O)cc1`, the outcome in test [2] was inactive.

In the case of `COc1ccc(C2CNC(=O)C2)cc1OC1CCCC1` (stereo not drawn), in test [1], the result was inactive.

Regarding `COc1ccc(/C=C2\SC(=S)NC2=O)cc1OC1CCCC1`, the results for the half-maximal inhibitory concentration (IC50) in test [1] and in test [2] were 10.8 µM and 0.89 µM, respectively.

`CCOc1ccc(/C=C2\SC(=S)NC2=O)cc1OCC`: the IC50 in test [1] was found to be 80 µM; in test [2] it was 6.51 µM.

On to `COc1cc(/C=C2\SC(=S)NC2=O)ccc1OC1CCCC1`, for which the IC50 in test [1] was 28.5 µM; in test [2], 30.4 µM.

With `COc1ccc(/C=C2\SC(=S)N(CC(=O)O)C2=O)cc1OC`, the outcome in test [2] was inactive.

For the compound `CCN1C(=O)/C(=C/c2ccc(O)c(OC)c2)SC1=S`, the outcome in test [1] was inactive. In test [2], half-maximal inhibition (IC50) required 0.74 µM.

Turning to `COc1ccc(/C=C2\SC(=N)NC2=O)cc1OC1CCCC1` [PSEUDOTHIOHYDANTOIN], the result in test [1] was inactive. Also, it took 0.31 µM to reach half-maximal inhibition in test [2] (IC50).

Regarding `COc1ccc(/C=C2\SC(=S)NC2=O)cc1O`, the outcome in test [2] was inactive.

With `COc1ccc(/C=C2\SC(=O)N(Cc3ccccc3)C2=O)cc1OC1CCCC1`, the outcome in test [2] was inactive.

On to `COc1ccc(/C=C2\SC(=O)NC2=O)cc1OC1CCCC1`, for which, in test [1], the outcome was inactive. Further, the IC50 in test [2] is 1.09 µM.

On to `CCOc1ccc(/C=C2\SC(=S)NC2=O)cc1OC1CCCC1`, for which the figures for the IC50 in test [1] and in test [2] were 25 µM and 1.85 µM, respectively.

`CCOc1ccc(/C=C2\SC(=S)NC2=O)cc1OC`: the IC50 in test [1] was determined as 9.46 µM; in test [2], 6.91 µM.

For the compound `O=C1NC(=S)S/C1=C\c1ccc2c(c1)OCO2`, the outcome in test [2] was inactive.

On to `COc1cc(/C=C2\SC(=S)NC2=O)ccc1O`, for which the result in test [2] was inactive.

In the case of `COc1ccc(/C=C2\SC(=S)NC2=O)cc1OCc1ccccc1`, the result in test [2] was inactive.

In the case of `COc1cccc(/C=C2\SC(=S)NC2=O)c1OC`, in test [2], inhibition was half-maximal at 54.7 µM (IC50).

For `COc1cccc(/C=C2\SC(=S)NC2=O)c1`, the result in test [2] was inactive.

`CCN1C(=O)/C(=C/c2ccc(OC)c(O)c2)SC1=S`: the result in test [1] was inactive. In test [2], this compound came in with an IC50 of 11.2 µM.

In the case of `CCN1C(=O)/C(=C/c2ccc(OC)c(OC)c2)SC1=S`, in test [2], the result was inactive.

Consider `C=CCN1C(=O)/C(=C/c2ccc(OC)c(OC3CCCC3)c2)SC1=S`, for which, in test [1], the outcome was inactive. Besides, the IC50 in test [2] is 4.13 µM.

Consider `C=CCOc1cc(/C=C2\SC(=S)NC2=O)ccc1OC`, for which the result in test [1] was inactive. In test [2], half-maximal inhibition (IC50) was put at 3.08 µM.

`COc1ccc(/C=C2\SC(=S)NC2=O)cc1OC` (stereo in doubt; 10a) [listing 1 of 2 here]: in test [1], the result was inactive.

On to `COc1ccc(/C=C2\SC(=O)NC2=O)cc1OC`, for which the result in test [1] was inactive. The IC50 in test [2] came to 14.1 µM.

For `O=C1NC(=S)S/C1=C\c1ccc(O)c(O)c1`, the result in test [2] was inactive.

For `COc1ccc(/C=C2\CCNC2=O)cc1OC1CCCC1`, in test [1], the outcome was inactive. The same compound displayed an IC50 in test [2] of 4.01 µM.

On to `COc1ccc(/C=C2\SC(=S)N(CC(=O)O)C2=O)cc1OC1CCCC1`, for which the result in test [1] was inactive. This compound also had an IC50 in test [2] of 3.07 µM.

In test [2], `COc1ccc(/C=C2\SC(=S)NC2=O)cc1OC` (stereo in doubt; 10a) [listing 2 of 2 here] showed an IC50 of 28.3 µM.
